In PubChem BioAssay (NCI):
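Test compounds were applied to cells in 96-well plates for 48 hours at 5 doses. TGI is the concentration that stops growth completely.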

Experiments:
Assay in all cases: NCI tumour cell line growth inhibition, 48 h
HCC-2998 colon = system: HCC-2998 colon
NCI-H226 lung = system: NCI-H226 lung
HOP-18 NSCLC = system: HOP-18 NSCLC
OVCAR-8 ovarian = system: OVCAR-8 ovarian
SF-268 CNS = system: SF-268 CNS
OVCAR-3 ovarian = system: OVCAR-3 ovarian
786-0 renal = system: 786-0 renal
SF-295 CNS = system: SF-295 CNS
SNB-78 CNS = system: SNB-78 CNS
RPMI-8226 leukemia = system: RPMI-8226 leukemia
TK-10 renal = system: TK-10 renal
HOP-92 NSCLC = system: HOP-92 NSCLC
LXFL 529 NSCLC = system: LXFL 529 NSCLC
UACC-62 melanoma = system: UACC-62 melanoma
M14 melanoma = system: M14 melanoma
M19-MEL melanoma = system: M19-MEL melanoma
UACC-257 melanoma = system: UACC-257 melanoma
U251 CNS = system: U251 CNS
HCT-116 colon = system: HCT-116 colon
OVCAR-4 ovarian = system: OVCAR-4 ovarian
SK-OV-3 ovarian = system: SK-OV-3 ovarian
HL-60(TB) leukemia = system: HL-60(TB) leukemia
A498 renal = system: A498 renal
DLD-1 colon = system: DLD-1 colon
UO-31 renal = system: UO-31 renal
SK-MEL-28 melanoma = system: SK-MEL-28 melanoma
SN12C renal = system: SN12C renal
KM12 colon = system: KM12 colon
DMS 273 small cell lung = system: DMS 273 small cell lung
NCI-H460 lung = system: NCI-H460 lung
SNB-75 CNS = system: SNB-75 CNS
KM20L2 colon = system: KM20L2 colon
RXF-631 renal = system: RXF-631 renal
COLO 205 colon = system: COLO 205 colon
IGROV1 ovarian = system: IGROV1 ovarian
RXF 393 renal = system: RXF 393 renal
NCI-H23 lung = system: NCI-H23 lung
HCT-15 colon = system: HCT-15 colon
HT29 colon = system: HT29 colon
A549 NSCLC = system: A549 NSCLC
SF-539 CNS = system: SF-539 CNS
MALME-3M melanoma = system: MALME-3M melanoma
MOLT-4 leukemia = system: MOLT-4 leukemia
HOP-62 NSCLC = system: HOP-62 NSCLC
ACHN renal = system: ACHN renal
SR leukemia = system: SR leukemia
CCRF-CEM leukemia = system: CCRF-CEM leukemia
K-562 leukemia = system: K-562 leukemia
XF 498 CNS = system: XF 498 CNS
OVCAR-5 ovarian = system: OVCAR-5 ovarian
DMS 114 small cell lung = system: DMS 114 small cell lung
SK-MEL-5 melanoma = system: SK-MEL-5 melanoma
CAKI-1 renal = system: CAKI-1 renal
LOX IMVI melanoma = system: LOX IMVI melanoma
NCI/ADR-RES ovarian = system: NCI/ADR-RES ovarian
SNB-19 CNS = system: SNB-19 CNS
NCI-H522 lung = system: NCI-H522 lung
SK-MEL-2 melanoma = system: SK-MEL-2 melanoma
P388/ADR leukemia = system: P388/ADR leukemia
P388 leukemia = system: P388 leukemia
SN12K1 renal = system: SN12K1 renal
SW-620 colon = system: SW-620 colon
EKVX NSCLC = system: EKVX NSCLC
MCF7 breast = system: MCF7 breast

With `O=C1/C(=C/c2ccc(C(=O)O)cc2)CNC/C1=C\c1ccc(C(=O)O)cc1` the TGI (HCC-2998 colon) was > 100 µM, the TGI (NCI-H226 lung) was > 100 µM and the TGI (HOP-18 NSCLC) was > 100 µM. For the same molecule, the TGI (OVCAR-8 ovarian) was > 100 µM, the TGI (SF-268 CNS) was > 100 µM and the TGI (OVCAR-3 ovarian) was > 100 µM. For the same molecule, the TGI (786-0 renal) was > 100 µM, the TGI (SF-295 CNS) was > 100 µM and the TGI (SNB-78 CNS) was > 100 µM. The TGI (RPMI-8226 leukemia) was > 100 µM, the TGI (TK-10 renal) was > 100 µM and the TGI (HOP-92 NSCLC) was > 100 µM. The TGI (LXFL 529 NSCLC) was > 100 µM, the TGI (UACC-62 melanoma) was > 100 µM and the TGI (M14 melanoma) was > 100 µM. The TGI (M19-MEL melanoma) was > 100 µM, the TGI (UACC-257 melanoma) was > 100 µM and the TGI (U251 CNS) was > 100 µM. The TGI (HCT-116 colon) was > 100 µM, the TGI (OVCAR-4 ovarian) was > 100 µM and the TGI (SK-OV-3 ovarian) was > 100 µM. The TGI (HL-60(TB) leukemia) was > 100 µM, the TGI (A498 renal) was > 100 µM and the TGI (DLD-1 colon) was > 100 µM. For the same molecule, the TGI (UO-31 renal) was > 100 µM, the TGI (SK-MEL-28 melanoma) was > 100 µM and the TGI (SN12C renal) was > 100 µM. The TGI (KM12 colon) was > 100 µM, the TGI (DMS 273 small cell lung) was > 100 µM and the TGI (NCI-H460 lung) was > 100 µM. The TGI (SNB-75 CNS) was > 100 µM, the TGI (KM20L2 colon) was > 100 µM and the TGI (RXF-631 renal) was > 100 µM. For the same molecule, the TGI (COLO 205 colon) was > 100 µM, the TGI (IGROV1 ovarian) was > 100 µM and the TGI (RXF 393 renal) was > 100 µM. The TGI (NCI-H23 lung) was > 100 µM, the TGI (HCT-15 colon) was > 100 µM and the TGI (HT29 colon) was > 100 µM. For the same molecule, the TGI (A549 NSCLC) was > 100 µM, the TGI (SF-539 CNS) was > 100 µM and the TGI (MALME-3M melanoma) was > 100 µM. The TGI (MOLT-4 leukemia) was > 100 µM, the TGI (HOP-62 NSCLC) was > 100 µM and the TGI (ACHN renal) was > 100 µM. The TGI (SR leukemia) was > 100 µM, the TGI (CCRF-CEM leukemia) was > 100 µM and the TGI (K-562 leukemia) was > 100 µM. For the same molecule, the TGI (XF 498 CNS) was > 100 µM, the TGI (OVCAR-5 ovarian) was > 100 µM and the TGI (DMS 114 small cell lung) was > 100 µM. The TGI (SK-MEL-5 melanoma) was > 100 µM.
`C=C1C(=O)OC2C=C(C)CC3C=C(CCC=C(C)CCC12)C(=O)O3` (stereo not drawn) showed a TGI (HCC-2998 colon) of 105 µM, a TGI (CAKI-1 renal) of 140 µM and a TGI (NCI-H226 lung) of 174 µM. It also gave a TGI (HOP-18 NSCLC) of 78.5 µM, a TGI (OVCAR-8 ovarian) of 174 µM and a TGI (SF-268 CNS) of 145 µM. The TGI (OVCAR-3 ovarian) was 116 µM, the TGI (LOX IMVI melanoma) was 95.1 µM and the TGI (NCI/ADR-RES ovarian) was 114 µM. It also gave a TGI (SF-295 CNS) of 200 µM, a TGI (SNB-19 CNS) of 271 µM and a TGI (SNB-78 CNS) of 222 µM. The TGI (RPMI-8226 leukemia) was 155 µM, the TGI (HOP-92 NSCLC) was 116 µM and the TGI (NCI-H522 lung) was 57.9 µM. For the same molecule, the TGI (UACC-62 melanoma) was 113 µM, the TGI (M19-MEL melanoma) was 135 µM and the TGI (UACC-257 melanoma) was 106 µM. The TGI (U251 CNS) was 121 µM, the TGI (HCT-116 colon) was 85.6 µM and the TGI (OVCAR-4 ovarian) was 131 µM. It also gave a TGI (SK-MEL-2 melanoma) of 101 µM, a TGI (SK-OV-3 ovarian) of 280 µM and a TGI (HL-60(TB) leukemia) of 73.4 µM. For the same molecule, the TGI (A498 renal) was 167 µM, the TGI (DLD-1 colon) was 137 µM and the TGI (UO-31 renal) was 234 µM. For the same molecule, the TGI (P388/ADR leukemia) was 93.2 µM, the TGI (SK-MEL-28 melanoma) was 119 µM and the TGI (SN12C renal) was 157 µM. For the same molecule, the TGI (KM12 colon) was 109 µM, the TGI (DMS 273 small cell lung) was 145 µM and the TGI (NCI-H460 lung) was 148 µM. For the same molecule, the TGI (P388 leukemia) was 85.1 µM, the TGI (SNB-75 CNS) was 196 µM and the TGI (KM20L2 colon) was 119 µM. It also gave a TGI (COLO 205 colon) of 115 µM, a TGI (IGROV1 ovarian) of 115 µM and a TGI (RXF 393 renal) of 82.3 µM. For the same molecule, the TGI (NCI-H23 lung) was 117 µM, the TGI (SN12K1 renal) was 123 µM and the TGI (HCT-15 colon) was 131 µM. It also gave a TGI (HT29 colon) of 131 µM, a TGI (A549 NSCLC) of 203 µM and a TGI (SF-539 CNS) of 199 µM. For the same molecule, the TGI (MALME-3M melanoma) was > 81.4 µM, the TGI (MOLT-4 leukemia) was 159 µM and the TGI (HOP-62 NSCLC) was 216 µM. For the same molecule, the TGI (CCRF-CEM leukemia) was 104 µM, the TGI (K-562 leukemia) was 228 µM and the TGI (OVCAR-5 ovarian) was 208 µM. For the same molecule, the TGI (SW-620 colon) was 107 µM, the TGI (DMS 114 small cell lung) was 151 µM and the TGI (EKVX NSCLC) was 118 µM. The TGI (MCF7 breast) was 106 µM and the TGI (SK-MEL-5 melanoma) was 138 µM.
